In patent US11524960B2, “Heterobicyclic inhibitors of MAT2A and methods of use for treating cancer” (AGIOS PHARMACEUTICALS, INC., priority 2018, dated 2022) one finds IC50 data, which are given here for 15 molecules.

One assay deals with HCT116 MTAP+/+. In words: Inhibition of cellular proliferation (Cell Titer Glo), HCT116 MTAP+/+. The assay is classed as cell-based, human. The note with it: Homo sapiens, HCT-116, 96 h, 4 days, IC50 score, read-out: 4 Day Relative Growth Inhibition (MTAP +/+; Example 277). The gist of the method: (§1)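 Proliferation was read as ATP luminescence (Cell Titer Glo) after a 4-day, 37 °C exposure of HCT116 cells differing only in MTAP deletion status. Dosing was 10 points, 3-fold steps, added 24 h post-plating; signal minus blank, relative to 0.2% DMSO control wells, was plotted against log molar concentration.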

In another assay the test system is HCT116 MTAP−/−. Kind of assay: Inhibition of cellular proliferation (Cell Titer Glo), HCT116 MTAP−/−. The assay is classed as cell-based, human. The note with it: Homo sapiens, HCT-116, 96 h, 4 days, IC50 score, read-out: 4 Day Relative Growth Inhibition (MTAP −/−; Example 277). The gist of the method: as §1
The next assay has as its target T1, MAT2A homodimer (Homo sapiens, UniProt P31153).
T1 construct: inferred from Ni sepharose purification and imidazole elution; made in house; host or cells: Sf9 insect cells, recombinant baculovirus (Bac to Bac, pFASTBAC1)
Kind of assay: Biochemical assay: inhibition of MAT2A (phosphate release, PiColorLock Gold). The note with it: MAT2A IC50 score; read-out: Enzyme Inhibition (Example 275). The method in brief: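 Phosphate formed alongside SAM was read with PiColorLock Gold and quantified against a potassium phosphate standard curve. Reactions ran 60 min at 25 °C after adding a substrate mix of 500 μM ATP and 400 μM L-methionine (mix concentrations). Compound had first been preincubated 60 min with recombinant Sf9-derived MAT2A homodimer ([…]) in pH 8.0 Tris buffer containing MgCl2, KCl, EDTA and BSA.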

The subject of assay [1] is SAM in HCT116 human colon carcinoma cell line engineered to delete the MTAP gene (MTAP −/−). Kind of assay: Cellular assay of target engagement (SAM) by LC-MS/MS. Particulars: Homo sapiens, HCT-116, 72 h, IC50 score, read-out: Cell 72 h SAM Inhibition (MTAP −/−; Example 276). It counts as cell-based. The gist of the method: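 Intracellular SAM, the MAT2A product, was measured by quantitative LC-MS/MS against a d3-SAM standard in methanol/acetic acid extracts. Extracts came from HCT116 MTAP −/− cells exposed for 72 h at 37 °C to a ten-point, threefold dilution series of compound, added one day after seeding.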

Structures are written as SMILES.

T1 sequence (P31153 whole entry): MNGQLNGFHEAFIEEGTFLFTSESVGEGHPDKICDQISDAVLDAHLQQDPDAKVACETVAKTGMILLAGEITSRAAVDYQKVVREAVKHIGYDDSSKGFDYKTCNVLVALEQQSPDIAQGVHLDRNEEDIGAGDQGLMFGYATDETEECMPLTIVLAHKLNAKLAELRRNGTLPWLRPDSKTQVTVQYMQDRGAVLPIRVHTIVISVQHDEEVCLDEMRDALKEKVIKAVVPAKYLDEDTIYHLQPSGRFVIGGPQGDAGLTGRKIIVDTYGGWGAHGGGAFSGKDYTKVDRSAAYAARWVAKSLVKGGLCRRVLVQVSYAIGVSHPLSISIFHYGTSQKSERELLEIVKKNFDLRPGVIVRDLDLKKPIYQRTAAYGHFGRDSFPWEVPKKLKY

In the case of `CCOc1ccc2cn(-c3ccc(OC)cc3)c(=O)c(-c3ccc(OC(F)(F)F)nc3)c2n1` [Example 121-A], the IC50 in the assay on HCT116 MTAP+/+ was 100 to 10000 nM; with HCT116 MTAP−/−, 100 to 10000 nM; on MAT2A homodimer it was less than 100 nM; in assay [1], less than 100 nM.
In the case of `CC(C)n1cc2cc(-n3cc4cnc(NCC(F)(F)F)nc4c(-c4ccc(OC(F)F)cc4)c3=O)ccc2n1` [Example 153, 8-(4-(difluoromethoxy)phenyl)-6-(2-isopropyl-2H-indazol-5-yl)-2-((2,2,2-trifluoroethyl)amino)pyrido[4,3-d]pyrimidin-7(6H)-one], the IC50 in the assay on HCT116 MTAP+/+ was greater than 10000 nM; in the assay on HCT116 MTAP−/−, less than 100 nM; at MAT2A homodimer, less than 100 nM; in assay [1], less than 100 nM.
As for `CCOc1ccc2cn(-c3ccc4nn(CCS(C)(=O)=O)cc4c3)c(=O)c(-c3ccc(Cl)cc3)c2n1` [Example 225, 8-(4-chlorophenyl)-2-ethoxy-6-(2-(2-(methylsulfonyl)ethyl)-2H-indazol-5-yl)-1,6-naphthyridin-7(6H)-one], the IC50 in the assay on HCT116 MTAP+/+ is 100 to 10000 nM; in the assay with HCT116 MTAP−/−, 100 to 10000 nM; at MAT2A homodimer it was 100 to 1000 nM; in assay [1] it was less than 100 nM.
For the molecule `CCOc1ccc2cn(-c3ccc4ncccc4c3)c(=O)c(-c3ccc(Cl)cc3)c2n1` [Example 243, 8-(4-chlorophenyl)-2-ethoxy-6-(quinolin-6-yl)-1,6-naphthyridin-7(6H)-one], the IC50 with HCT116 MTAP+/+ was greater than 10000 nM; with HCT116 MTAP−/−, less than 100 nM; at MAT2A homodimer it was less than 100 nM; in assay [1], less than 100 nM.
On to `[2H]C([2H])([2H])Oc1ccc(-c2c(=O)n(-c3ccc4nn(C)cc4c3)cc3ccc(OCC)nc23)cc1` [Example 117-A], for which the IC50 is 100 to 10000 nM with HCT116 MTAP+/+, less than 100 nM in the assay with HCT116 MTAP−/−, less than 100 nM on MAT2A homodimer and less than 100 nM in assay [1].
As to `CCOc1ccc2cn(-c3ccc4ncn(C)c4c3)c(=O)c(-c3ccc(OC(F)F)cc3)c2n1` [Example 253, 8-(4-(difluoromethoxy)phenyl)-2-ethoxy-6-(1-methyl-1H-benzo[d]imidazol-6-yl)-1,6-naphthyridin-7(6H)-one], the IC50 in the assay on HCT116 MTAP+/+ was 100 to 10000 nM; in the assay on HCT116 MTAP−/−, less than 100 nM; at MAT2A homodimer, less than 100 nM; in assay [1], less than 100 nM.
Take `CCNc1ncc2cn(-c3ccc(OC)cc3)c(=O)c(-c3ccc(Br)cc3)c2n1` [Example 188, 8-(4-bromophenyl)-2-(ethylamino)-6-(4-methoxyphenyl)pyrido[4,3-d]pyrimidin-7(6H)-one]: the IC50 in the assay on HCT116 MTAP+/+ was greater than 10000 nM; in the assay with HCT116 MTAP−/−, 100 to 10000 nM; on MAT2A homodimer, less than 100 nM; in assay [1], less than 100 nM.
On to `CCOc1cnc2cn(-c3ccc4ncccc4c3)c(=O)c(-c3ccc(Cl)cc3)c2n1` [Example 142-A], for which the IC50 in the assay on HCT116 MTAP+/+ was greater than 10000 nM; in the assay with HCT116 MTAP−/−, 100 to 10000 nM; at MAT2A homodimer it was less than 100 nM; in assay [1], 100 to 1000 nM.
With `CCOc1ccc2cn(-c3ccc4ncn(C)c4c3)c(=O)c(-c3ccc(C)nc3)c2n1` [Example 132-A], the IC50 in the assay with HCT116 MTAP+/+ was 100 to 10000 nM; in the assay with HCT116 MTAP−/− it was less than 100 nM; at MAT2A homodimer it was less than 100 nM; in assay [1], less than 100 nM.
Consider `O=c1c(-c2ccc(-c3nc[nH]n3)cc2)c2nc(OCC(F)(F)F)ncc2cn1-c1ccc2ncccc2c1` [Example 268, 8-(4-(H-1,2,4-triazol-3-yl)phenyl)-6-(quinolin-6-yl)-2-(2,2,2-trifluoroethoxy)pyrido[4,3-d]pyrimidin-7(6H)-one], for which the IC50 with HCT116 MTAP+/+ is greater than 10000 nM; in the assay on HCT116 MTAP−/−, 100 to 10000 nM; at MAT2A homodimer, less than 100 nM; in assay [1], 100 to 1000 nM.
Taken in the same sequence, the figures for `COc1ccc(-n2cc3cnc(NCC(F)F)nc3c(-c3ccc(Br)cc3)c2=O)cc1` [Example 189, 8-(4-bromophenyl)-2-((2,2-difluoroethyl)amino)-6-(4-methoxyphenyl)pyrido[4,3-d]pyrimidin-7(6H)-one] were 100 to 10000 nM, 100 to 10000 nM, less than 100 nM and less than 100 nM.
Consider `Cn1cc2cc(-n3cc4ncc(OCC(F)F)nc4c(-c4ccc(OC(F)(F)F)nc4)c3=O)ccc2n1` [Example 143-A], for which the IC50 was 100 to 10000 nM in the assay on HCT116 MTAP+/+, less than 100 nM in the assay with HCT116 MTAP−/−, less than 100 nM on MAT2A homodimer and less than 100 nM in assay [1].
With `Cn1cc2cc(-n3cc4cnc(NCC(F)(F)F)nc4c(-c4ccc(OC(F)F)cc4)c3=O)ccc2n1` [Example 148, 8-(4-(difluoromethoxy)phenyl)-6-(2-methyl-2H-indazol-5-yl)-2-((2,2,2-trifluoroethyl)amino)pyrido[4,3-d]pyrimidin-7(6H)-one], the IC50 is 100 to 10000 nM with HCT116 MTAP+/+, less than 100 nM with HCT116 MTAP−/−, less than 100 nM on MAT2A homodimer and less than 100 nM in assay [1].
For the molecule `COc1ccc(-n2cc3cnc(NCC(F)(F)F)nc3c(-c3ccc(-c4nc[nH]n4)cc3)c2=O)cc1` [Example 206, 8-(4-(H-1,2,4-triazol-3-yl)phenyl)-6-(4-methoxyphenyl)-2-(2,2,2-trifluoroethylamino)pyrido[4,3-d]pyrimidin-7(6H)-one], the IC50 in the assay on HCT116 MTAP+/+ is 100 to 10000 nM; in the assay with HCT116 MTAP−/−, 100 to 10000 nM; at MAT2A homodimer, less than 100 nM; in assay [1], 100 to 1000 nM.
For `CC(C)(O)Cn1cc2cc(-n3cc4cnc(NCC(F)(F)F)nc4c(-c4ccc(Cl)cc4)c3=O)ccc2n1` [Example 101-A], the IC50 in the assay with HCT116 MTAP+/+ was greater than 10000 nM; in the assay with HCT116 MTAP−/− it was less than 100 nM; at MAT2A homodimer, less than 100 nM; in assay [1], less than 100 nM.
